Results reported in paper PMC8745710, “Biological Evaluation and Molecular Docking Studies of Novel 1,3,4-Oxadiazole Derivatives of 4,6-Dimethyl-2-sulfanylpyridine-3-carboxamide” (International Journal of Molecular Sciences, 2022).
Like-named read-outs stand apart in the source and are kept apart here.

Key:
[1] = system: NHDF (normal human dermal fibroblasts); experiment: MTT assay, NHDF; format: cell-based; conditions: 48 h incubation, read-out: IC50 [µM] ± SD NHDF
Description: (§1) The MTT (3-[4,5-dimethylthiazol-2-yl]-2,5-diphenyl tetrazolium bromide) assay was used to determine the cytotoxicity of tested compounds towards different cell lines: normal human dermal fibroblasts (NHDF), kidney epithelial cells (VERO), fibroblasts from Chinese hamster lung (V79) and four human cancer cells: A549 (pulmonary basal cell alveolar adenocarcinoma), MCF-7 (breast adenocarcinoma), LoVo (colon adenocarcinoma), and its drug resistant subline LoVo/Dx. The cell lines used in this study express COX-1 and COX-2. The LoVo line expressed COX-1, the LoVo/Dx subline express both COX-1 and COX-2 [61].
(§2) Each cell line was grown in the culture media recommended by supplier. Before the test they were detached with trypsin/EDTA solution, then to neutralize the effect of Trypsin/EDTA solution, FBS containing medium was used. After centrifugation the cells were stained with 0.4% solution of trypan blue, counted and inspected for viability using microscope. In the end, cells were inserted into 96-well culture plates and incubated in CO2 incubator (37 °C, 24 h). The number of cells was 2 × 10^3 cells per well. The tested compounds with different concentrations (5, 10, 20, 50, 100 µM) were dissolved in DMSO and then added to the cells (the final DMSO concentration was 0.1%). The cultures were incubated for another 48 h. After that time the cells were collected to be used in tests.
(§3) MTT assay was used to find out how tested compounds influence the metabolic activity of investigated cell lines. The cells were incubated with tested compounds. After removing of supernatant, 1 mg/mL of MTT solution in MEM was added to the plate (to each well) and then the plates were incubated at 37 °C for 2 h. The medium was removed again, and formazan crystals were dissolved in isopropanol. A Varioscan LUX microplate reader (Thermo Fisher Scientific, Waltham, MA, USA) was used to measure absorbance at 570 nm.

[2] = system: VERO (kidney epithelial cells); experiment: MTT assay, VERO; format: cell-based; conditions: Chlorocebus sabaeus, Vero, 48 h incubation, read-out: IC50 [µM] ± SD VERO
Description: as §1, §2, §3

[3] = system: V79 (fibroblasts from Chinese hamster lung); experiment: MTT assay, V79; format: cell-based; conditions: Cricetulus griseus, Fibroblast, 48 h incubation, read-out: IC50 [µM] ± SD V79
Description: as §1, §2, §3

[4] = system: A549 (pulmonary basal cell alveolar adenocarcinoma); experiment: MTT assay, A549; format: cell-based; conditions: Homo sapiens, 48 h incubation, read-out: IC50 [µM] ± SD A549
Description: as §1, §2, §3

[5] = system: LoVo (colon adenocarcinoma); experiment: MTT assay, LoVo; format: cell-based; conditions: Homo sapiens, 48 h incubation, read-out: IC50 [µM] ± SD LoVo
Description: as §1, §2, §3

[6] = system: LoVo/Dx (drug resistant subline of LoVo); experiment: MTT assay, LoVo/Dx; format: cell-based; conditions: Homo sapiens, 48 h incubation, read-out: IC50 [µM] ± SD LoVo/Dx
Description: as §1
as §2, with “In the end, cells were inserted into 96-well culture plates and incubated in CO2 incubator (37 °C, 24 h).” left out
MTT assay was used to find out how tested compounds influence the metabolic activity of investigated cell lines. The cells were incubated with tested compounds. […] The medium was removed again, and formazan crystals were dissolved in isopropanol.

V79 cell line = experiment: Intracellular ROS level (DCFH-DA), V79 cells; format: cell-based, Chinese hamster; conditions: Cricetulus griseus, 4 h, V79, compound 100 μM
Protocol: (§4) Two cell lines were chosen for investigations: V79 (Chinese hamster lung fibroblasts) and LoVo. V79 normal cells are widely used as the cell line tested in the studies of the oxidative stress. These cells are a living system model to explain the mechanism of ROS effects caused by varied compounds [73].
(§5) First, the tested compounds (in concentration of 100 μM) were added to the cell cultures and cells were incubated for 4 h. Then cells were washed and incubated with DCFH-DA (non-fluorescent probe) in dark at 37 °C for 2 h at CO2 [79]. Non-fluorescent, non-polar DCFH-DA (2′7′-dichlorodihydrofluorescein diacetate) at concentration of 25 μM was used as a marker of oxidative stress to determine the intracellular ROS levels. […] In this time, DCFH-DA which penetrated into the cells, was hydrolyzed by esterases to polar, non-fluorescent DCFH (2′7′-dichlorodihydrofluorescein) and then oxidized in the presence of ROS (reactive oxygen species) to fluorescent DCF (2′7′-dichlorofluorescein). DCF was measured using Varioscan LUX microplate reader (Thermo Fisher Scientific, Waltham, MA, USA) at λex = 485 nm and λem = 535 nm. Then results were presented as E/E0 where E is test sample value and E0—control value.
[…] E is the culture with the tested compound and E0 is the negative control without the compound. The routine statistical methods: two-way analysis of variance ANOVA as well as Tukey’s post-hoc test were used. It allowed us to determine the statistical significance of results, where p < 0.05 was set as significant. The statistical indicators were estimated using Statistica 13.3 software.

LoVo cell line = experiment: Intracellular ROS level (DCFH-DA), LoVo cells; format: cell-based; conditions: Homo sapiens, 4 h, compound 100 μM
Protocol: as §4
as §5, with “nm.” for “nm. Then results were presented as E/E0 where E is test sample value and E0—control value.”
E is the culture with the tested compound and E0 is the negative control without the compound. The routine statistical methods: two-way analysis of variance ANOVA as well as Tukey’s post-hoc test were used. It allowed us to determine the statistical significance of results, where p < 0.05 was set as significant. The statistical indicators were estimated using Statistica 13.3 software.

[7] = with H2O2 (100 μM, 30 min), n = 5, read-out: ROS scavenging activity, Mean E/E0 ± SD, with H2O2
[8] = without H2O2, n = 5, read-out: ROS scavenging activity, Mean E/E0 ± SD, without H2O2

SMILES	IC50 [1]	IC50 [2]	IC50 [3]	IC50 [4]	IC50 [5]	IC50 [6]	activity at 100 µM (V79 cell line; [7])	activity at 100 µM (V79 cell line; [8])	activity at 100 µM (LoVo cell line; [7])	activity at 100 µM (LoVo cell line; [8])
Cc1cc(C)c(C(=O)NCc2nn(CC(=O)NN)c(=S)o2)c(S)n1 [Compound 4, N-{[4-(2-hydrazinyl-2-oxoethyl)-5-sulfanylidene-4,5-dihydro-1,3,4-oxadiazol-2-yl]methyl}-4,6-dimethyl-2-sulfanylpyridine-3-carboxamide]	57.5 ± 1.22 µM	77.4 ± 5.84 µM	71.7 ± 5.8 µM	3.84 ± 0.3 µM	3.01 ± 0.2 µM	5.73 ± 3.84 µM	42 ± 8%	53 ± 22%	83 ± 8%	69 ± 33%
Cc1cc(C)c(C(=O)NCc2nn(CC(=O)NN=Cc3ccccc3)c(=S)o2)c(S)n1 [Compound 5, 4,6-Dimethyl-N-{[4-(2-(2-benzylidenehydrazinyl)-2-oxoethyl)-5-sulfanylidene-4,5-dihydro-1,3,4-oxadiazol-2-yl]methyl}-2-sulfanylpyridine-3-carboxamide]	59 ± 1.49 µM	100 ± 13.5 µM	84.3 ± 3.4 µM	3.62 ± 0.43 µM	3.13 ± 0.17 µM	5.69 ± 1.03 µM	59 ± 21%	82 ± 13%	87 ± 21%	72 ± 21%
Cc1cc(C)c(C(=O)NCc2nn(CC(=O)NN=Cc3ccc(F)cc3)c(=S)o2)c(S)n1 [Compound 6, 4,6-Dimethyl-N-{[4-(2-(2-(4-fluorobenzylidene)hydrazinyl)-2-oxoethyl)-5-sulfanylidene-4,5-dihydro-1,3,4-oxadiazole-2-yl]methyl}-2-sulfanylpyridine-3-carboxamide]	58.2 ± 0.92 µM	59.6 ± 5.42 µM	80.7 ± 5.6 µM	4.05 ± 0.26 µM	3.2 ± 0.26 µM	7.07 ± 2.48 µM	97 ± 11%	82 ± 17%	88 ± 4%	74 ± 22%
Cc1ccc(C=NNC(=O)Cn2nc(CNC(=O)c3c(C)cc(C)nc3S)oc2=S)cc1 [Compound 7, 4,6-Dimethyl-N-{[4-(2-(2-(4-methylbenzylidene)hydrazinyl)-2-oxoethyl)-5-sulfanylidene-4,5-dihydro-1,3,4-oxadiazole-2-yl]methyl}-2-sulfanylpyridine-3-carboxamide]	58.2 ± 2 µM	68.3 ± 3.24 µM	47.7 ± 1.73 µM	3.72 ± 0.54 µM	3.46 ± 0.39 µM	7.89 ± 1.78 µM	81 ± 23%	103 ± 39%	95 ± 27%	107 ± 38%
CSc1ccc(/C=N\NC(=O)Cn2nc(CNC(=O)c3c(C)cc(C)nc3S)oc2=S)cc1 [Compound 8, 4,6-Dimethyl-N-{[4-(2-(2-(4-methysulfanylbenzylidene)hydrazinyl)-2-oxoethyl)-5-sulfanylidene-4,5-dihydro-1,3,4-oxadiazole-2-yl]methyl}-2-sulfanylpyridine-3-carboxamide]	58.7 ± 1.94 µM	50.4 ± 2.45 µM	71.1 ± 2.4 µM	4.34 ± 0.56 µM	3.6 ± 0.55 µM	21 ± 5.92 µM	72 ± 11%	85 ± 29%	80 ± 22%	65 ± 20%
Cc1cc(C)c(C(=O)NCc2nn(CC(=O)NN=Cc3ccc(C#N)cc3)c(=S)o2)c(S)n1 [Compound 9, 4,6-Dimethyl-N-{[4-(2-(2-(4-cyanobenzylidene)hydrazinyl)-2-oxoethyl)-5-sulfanylidene-4,5-dihydro-1,3,4-oxadiazole-2-yl]methyl}-2-sulfanylpyridine-3-carboxamide]	59.4 ± 1.9 µM	89.8 ± 8.43 µM	77.7 ± 4.41 µM	3.36 ± 0.2 µM	3.24 ± 0.1 µM	6.87 ± 1.45 µM	71 ± 12%	78 ± 31%	91 ± 19%	76 ± 22%
Cc1cc(C)c(C(=O)NCc2nn(CC(=O)NN=Cc3ccc(Cl)cc3)c(=S)o2)c(S)n1 [Compound 10, 4,6-Dimethyl-N-{[4-(2-(2-(4-chlorobenzylidene)hydrazinyl)-2-oxoethyl)-5-sulfanylidene-4,5-dihydro-1,3,4-oxadiazole-2-yl]methyl}-2-sulfanylpyridine-3-carboxamide]	59.9 ± 2.04 µM	130 ± 9.5 µM	56.1 ± 5.42 µM	3.52 ± 0.19 µM	3.12 ± 0.23 µM	22.3 ± 2.1 µM	82 ± 37%	73 ± 27%	91 ± 14%	85 ± 27%
Cc1cc(C)c(C(=O)NCc2nn(CC(=O)NN=Cc3ccc(C(F)(F)F)cc3)c(=S)o2)c(S)n1 [Compound 11, 4,6-Dimethyl-N-{[4-(2-(2-(4-trifluoromethylbenzylidene)hydrazinyl)-2-oxoethyl)-5-sulfanylidene-4,5-dihydro-1,3,4-oxadiazole-2-yl]methyl}-2-sulfanylpyridine-3-carboxamide]	59 ± 3.62 µM	104 ± 4.98 µM	55.2 ± 2.75 µM	3.72 ± 0.24 µM	3.12 ± 0.31 µM	17.5 ± 8.73 µM	112 ± 20%	67 ± 24%	84 ± 17%	124 ± 65%
